Literature values, collected in patent publication US7994210B2, “Method of treating Down Syndrome” (priority 2004, dated 2011).
Read-outs that look alike come from different tables or passages of the source.

Assays:
[1] = test system: beta-amyloid precursor protein (beta-APP)
acetylcholinesterase = acetylcholinesterase (Homo sapiens, UniProt P22303)
[2] = listed as (+)9-N-phenylcarbinol eseroline

acetylcholinesterase, sequence (P22303 32-614, species assumed): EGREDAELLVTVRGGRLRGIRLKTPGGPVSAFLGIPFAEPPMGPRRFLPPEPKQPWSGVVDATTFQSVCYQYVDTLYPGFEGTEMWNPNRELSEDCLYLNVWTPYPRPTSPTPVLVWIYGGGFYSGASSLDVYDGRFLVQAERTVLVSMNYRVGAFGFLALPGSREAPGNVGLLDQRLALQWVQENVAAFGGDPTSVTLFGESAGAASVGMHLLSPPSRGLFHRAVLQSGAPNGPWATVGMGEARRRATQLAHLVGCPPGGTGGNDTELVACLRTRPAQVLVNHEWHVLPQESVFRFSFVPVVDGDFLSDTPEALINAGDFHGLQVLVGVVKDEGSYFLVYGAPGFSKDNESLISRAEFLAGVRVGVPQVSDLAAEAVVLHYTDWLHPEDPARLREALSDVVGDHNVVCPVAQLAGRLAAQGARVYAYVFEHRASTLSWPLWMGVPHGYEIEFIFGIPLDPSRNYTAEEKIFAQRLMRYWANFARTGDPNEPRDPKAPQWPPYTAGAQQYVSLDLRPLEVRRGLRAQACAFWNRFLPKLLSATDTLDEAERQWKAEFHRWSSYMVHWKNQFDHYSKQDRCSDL

In the case of CN1CC[C@]2(C)c3cc(OC(=O)Nc4ccccc4)ccc3N(C)[C@H]12 [(+)-Phenserine, (+)9-N-phenylcarbinol eseroline], the “production/formation of β-APP” value [1] is given as “reduces the production of β-APP”, the “production/formation of β-APP” value [1, 2] is given as “inhibits β-APP production” and the acetylcholinesterase inhibitor activity (acetylcholinesterase) is given as “lacking significant acetylcholinesterase inhibitor activity”. The acetylcholinesterase inhibitor activity (acetylcholinesterase; [2]) was “lacks anticholinesterase activity”.
